Key:
MDA-MB-231 cells = test: Inverted invasion assay through matrigel towards EGF; settings: nuclei of invading cells above 40 μm
LM2 cells = test: Extravasation (experimental lung) metastasis assay, tail vein injection; assay type: in vivo, mice; settings: LM2 cells stably expressing shRNA injected via tail vein, 28 days; vs Ctrl-shRNA
Protocol: For the experimental lung metastasis assay, 5×10^4 cells in 100 μl of Hank's Balanced Salt Solution were injected into the lateral tail vein of 6- to 8-week-old female NOD/SCID/IL2RV-null mice. The mice were sacrificed 28 days post-injection and lungs were inflated with 3.8% formaldehyde imaged with a fluorescence microscope and subsequently fixed overnight with 3.8% formaldehyde. ZsGreen-positive foci were counted in the left pulmonary lobe using ImageJ and counts were manually curated as needed.

Molecule: CNC(=O)[C@H](Cc1c[nH]c2ccccc12)NC(=O)[C@@H](CC(=O)NO)CC(C)C [MMP inhibitor, GM6001]
- invasion of Lpd overexpressing cells (MDA-MB-231 cells; MDA-MB-231 expressing GFP-Lpd, 10 μM GM6001 vs DMSO): reduced invasion
- invasion of GFP expressing control cells (MDA-MB-231 cells; MDA-MB-231 expressing GFP, 10 μM GM6001 vs DMSO): reduced invasion

Molecule: Cc1ccc(NC(=O)c2ccc(CN3CCN(C)CC3)cc2)cc1Nc1nccc(-c2cccnc2)n1 [ST1571, STI-571]
- breast cancer cell invasiveness towards EGF (MDA-MB-231 cells; MDA-MB-231, Dasatinib 10 nM, STI571 10 μM, 72 hours vs DMSO): impaired

Molecule: Lpd-shRNA2: shRNA targeting human Lpd, TTCCCATACTTTGCAATGCGG
- number of ZsGreen-positive metastatic foci in the left pulmonary lobe (LM2 cells): not significant
